Test results reported in the NIST ThermoML archive (doi:10.1016/j.fluid.2008.10.003).

Assay: isobaric coefficient of expansion; xn = mol fraction of the nth substance listed
Settings: 348.15 K, calorimetric method

CCCCCCO [hexan-1-ol] + CCCCCC
isobaric coefficient of expansion
Settings | 30000 kPa | 35000 kPa | 40000 kPa | 45000 kPa | 50000 kPa
x1 = 0.0321 | 0.00114 1/K | 0.00109 1/K | 0.00105 1/K | 0.00101 1/K | 0.00098 1/K
x1 = 0.041 | 0.00114 1/K | 0.0011 1/K | 0.00105 1/K | 0.00101 1/K | 0.00098 1/K
x1 = 0.0946 | 0.00114 1/K | 0.0011 1/K | 0.00105 1/K | 0.00102 1/K | 0.000988 1/K
x1 = 0.1679 | 0.00113 1/K | 0.00108 1/K | 0.00104 1/K | 0.001 1/K | 0.000967 1/K
x1 = 0.2153 | 0.00111 1/K | 0.00107 1/K | 0.00103 1/K | 0.000999 1/K | 0.000968 1/K
x1 = 0.3016 | 0.00108 1/K | 0.00104 1/K | 0.00101 1/K | 0.000976 1/K | 0.000944 1/K
x1 = 0.4075 | 0.00105 1/K | 0.00101 1/K | 0.000981 1/K | 0.00095 1/K | 0.000924 1/K
x1 = 0.503 | 0.00102 1/K | 0.000989 1/K | 0.000956 1/K | 0.000929 1/K | 0.000904 1/K
x1 = 0.594 | 0.000993 1/K | 0.00096 1/K | 0.000928 1/K | 0.000904 1/K | 0.000882 1/K
x1 = 0.6827 | 0.000963 1/K | 0.000933 1/K | 0.000903 1/K | 0.000881 1/K | 0.000859 1/K
x1 = 0.8013 | 0.00092 1/K | 0.000892 1/K | 0.000866 1/K | 0.000845 1/K | 0.000824 1/K
x1 = 0.8934 | 0.000886 1/K | 0.000862 1/K | 0.000838 1/K | 0.000817 1/K | 0.000797 1/K
x1 = 1 | 0.000852 1/K | 0.000831 1/K | 0.000808 1/K | 0.000791 1/K | 0.000772 1/K
